# What was measured:
# [1] = target: T1, Hypoxia-inducible factor 1-alpha (Homo sapiens, UniProt Q16665); assay: Activation of human HIF1alpha expressed in DFX-induced human U2OS cells incubated for 30 mins prior to DFX-induction measured after overnight incubation by luciferase reporter gene assay
# [2] = Activation of human HIF1alpha expressed in human U2OS cells assessed as increase in VEGF expression by RT-PCR analysis
# [3] = Activation of GFP-tagged HIF1alpha expressed in human U2OS cells assessed as HIF1alpha nuclear translocation by high content imaging assay
# [4] = target: T1, Hypoxia-inducible factor 1-alpha; assay: Activation of human HIF1alpha expressed in DFX-induced human U2OS cells incubated for 30 mins prior to DFX-induction measured after overnight incubation by luciferase reporter gene assay in presence of 50 uM iron
# [5] = target: T1, Hypoxia-inducible factor 1-alpha; assay: Activation of human HIF1alpha expressed in DFX-induced human U2OS cells incubated for 30 mins prior to DFX-induction measured after overnight incubation by luciferase reporter gene assay in presence of 50 uM zinc
# T1 sequence (Q16665 whole entry): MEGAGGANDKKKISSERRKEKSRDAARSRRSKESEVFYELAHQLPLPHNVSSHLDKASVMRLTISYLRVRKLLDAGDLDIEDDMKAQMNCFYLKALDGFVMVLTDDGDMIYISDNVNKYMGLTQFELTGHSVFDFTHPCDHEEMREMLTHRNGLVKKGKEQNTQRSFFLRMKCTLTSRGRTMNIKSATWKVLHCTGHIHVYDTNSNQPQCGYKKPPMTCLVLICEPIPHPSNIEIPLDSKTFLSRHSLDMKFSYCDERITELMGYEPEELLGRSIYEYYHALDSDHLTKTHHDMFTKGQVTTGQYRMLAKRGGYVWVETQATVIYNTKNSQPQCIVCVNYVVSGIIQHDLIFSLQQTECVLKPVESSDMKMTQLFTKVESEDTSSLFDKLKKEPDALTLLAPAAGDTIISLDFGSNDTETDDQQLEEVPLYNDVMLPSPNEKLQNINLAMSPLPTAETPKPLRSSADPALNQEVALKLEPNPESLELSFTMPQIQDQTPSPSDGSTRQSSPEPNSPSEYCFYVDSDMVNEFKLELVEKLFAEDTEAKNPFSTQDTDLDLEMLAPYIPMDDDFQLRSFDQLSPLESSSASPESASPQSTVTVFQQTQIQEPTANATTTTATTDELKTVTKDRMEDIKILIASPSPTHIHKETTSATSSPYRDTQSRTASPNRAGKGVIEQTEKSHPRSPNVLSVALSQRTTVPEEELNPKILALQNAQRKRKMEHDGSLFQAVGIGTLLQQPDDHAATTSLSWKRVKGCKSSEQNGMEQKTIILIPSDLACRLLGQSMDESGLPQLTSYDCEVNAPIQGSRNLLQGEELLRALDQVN
smiles,measurement,setting,value
Cc1cccc(Nc2nc(-c3ccccn3)nnc2-c2ccccc2)n1,EC50,[1],22.4 µM
same,EC50,[2],7.55 µM
same,EC50,[3],5.41 µM
c1ccc(-c2nnc(-c3ccccn3)nc2Nc2cnc3ccccc3n2)cc1,EC50,[1],7.64 µM
same,EC50,[2],3.26 µM
same,EC50,[3],4.46 µM
Cc1ccccc1CNc1nc(-c2ccccn2)nnc1-c1ccccc1,EC50,[1],6.67 µM
same,EC50,[2],3.08 µM
same,EC50,[3],9.54 µM
Cc1cccc(CNc2nc(-c3ccccn3)nnc2-c2ccccc2)c1,EC50,[1],5.41 µM
same,EC50,[2],2.91 µM
same,EC50,[3],2.39 µM
Cc1ccc(CNc2nc(-c3ccccn3)nnc2-c2ccccc2)cc1,EC50,[1],4.58 µM
same,EC50,[2],2.6 µM
same,EC50,[3],1.19 µM
C[C@H](Nc1nc(-c2ccccn2)nnc1-c1ccccc1)C1CCCCC1,EC50,[1],4.17 µM
same,EC50,[2],2.55 µM
same,EC50,[3],2.06 µM
C[C@@H](Nc1nc(-c2ccccn2)nnc1-c1ccccc1)C1CCCCC1,EC50,[1],6.73 µM
same,EC50,[2],1.88 µM
same,EC50,[3],1.2 µM
c1ccc(-c2nnc(-c3ccccn3)nc2NCC2CCOCC2)cc1,EC50,[1],29.5 µM
same,EC50,[2],8.38 µM
same,EC50,[3],7.67 µM
c1ccc(CCNc2nc(-c3ccccn3)nnc2-c2ccccc2)cc1,EC50,[1],3.63 µM
same,EC50,[2],8.72 µM
same,EC50,[3],9.82 µM
c1ccc(-c2nnc(-c3ccccn3)nc2NCCc2ccccn2)cc1,EC50,[1],17.5 µM
same,EC50,[2],9.6 µM
same,EC50,[3],9.84 µM
Cc1ccc(CNc2nc(-c3ccccn3)nnc2-c2ccccc2)cc1C,EC50,[1],2.96 µM
same,EC50,[2],1.85 µM
same,EC50,[3],2.3 µM
Clc1cccc(CNc2nc(-c3ccccn3)nnc2-c2ccccc2)c1,EC50,[1],2.33 µM
same,EC50,[2],2.77 µM
same,EC50,[3],1.49 µM
COc1ccc(CNc2nc(-c3ccccn3)nnc2-c2ccccc2)cc1,EC50,[1],4.74 µM
same,EC50,[2],3.67 µM
same,EC50,[3],3.73 µM
COc1cccc(CNc2nc(-c3ccccn3)nnc2-c2ccccc2)c1,EC50,[1],4.15 µM
same,EC50,[2],3.92 µM
same,EC50,[3],6.27 µM
CC(C)(C)c1ccc(CNc2nc(-c3ccccn3)nnc2-c2ccccc2)cc1,EC50,[1],1.71 µM
same,EC50,[2],1.12 µM
same,EC50,[3],0.6 µM
c1ccc(-c2nnc(-c3ccccn3)nc2NCc2cccnc2)cc1,EC50,[1],26 µM
same,EC50,[2],4.35 µM
same,EC50,[3],5.02 µM
c1ccc(-c2nnc(-c3ccccn3)nc2NCc2ccccn2)cc1,EC50,[1],27.8 µM
same,EC50,[2],6.45 µM
same,EC50,[3],7.62 µM
c1ccc(-c2cccc(CNc3nc(-c4ccccn4)nnc3-c3ccccc3)c2)cc1,EC50,[1],2.49 µM
same,EC50,[2],2.57 µM
same,EC50,[3],0.5 µM
c1ccc(-c2ccc(CNc3nc(-c4ccccn4)nnc3-c3ccccc3)cc2)cc1,EC50,[1],1.12 µM
same,EC50,[4],15.6 µM
same,EC50,[5],5.01 µM
same,EC50,[2],1.63 µM
same,EC50,[3],1.4 µM
O=C(NCCCCO)c1cc(-c2ccccc2)on1,EC50,[1],22 µM
same,EC50,[2],7.57 µM
same,EC50,[3],3.04 µM
O=C(NCC1CC1)c1cc(-c2ccccc2)on1,EC50,[1],24.9 µM
same,EC50,[2],21.5 µM
same,EC50,[3],16.6 µM
c1ccc(-c2nnc(-c3ccccn3)nc2NCC2CC2)cc1,EC50,[1],12.7 µM
same,EC50,[2],6.21 µM
same,EC50,[3],4.27 µM
c1ccc(-c2nnc(-c3ccccn3)nc2NCC2CCCCC2)cc1,EC50,[1],4.74 µM
same,EC50,[2],3.45 µM
same,EC50,[3],2.46 µM
CC(C)(C)CCNc1nc(-c2ccccn2)nnc1-c1ccccc1,EC50,[1],2.97 µM
same,EC50,[2],2.48 µM
same,EC50,[3],3.82 µM
OCCCNc1nc(-c2ccccn2)nnc1-c1ccccc1,EC50,[1],25 µM
same,EC50,[2],10.6 µM
same,EC50,[3],10.5 µM
c1ccc(-c2nnc(-c3ccccn3)nc2NCCN2CCOCC2)cc1,EC50,[1],20.8 µM
same,EC50,[2],10 µM
same,EC50,[3],9.08 µM
c1ccc(-c2nnc(-c3ccccn3)nc2NCCCN2CCOCC2)cc1,EC50,[1],14.2 µM
same,EC50,[2],8.12 µM
same,EC50,[3],6.27 µM
OCC1CCN(c2nc(-c3ccccn3)nnc2-c2ccccc2)CC1,EC50,[1],22.9 µM
same,EC50,[2],12.1 µM
same,EC50,[3],11.6 µM
CN1CCN(c2nc(-c3ccccn3)nnc2-c2ccccc2)CC1,EC50,[1],21.9 µM
same,EC50,[2],8.69 µM
same,EC50,[3],10.2 µM
O=C(NCCCN1CCOCC1)c1cc(-c2ccccc2)on1,EC50,[1],23.9 µM
same,EC50,[2],28 µM
same,EC50,[3],20 µM
CCCCNC(=O)c1cc(-c2ccc(F)cc2)on1,EC50,[1],8.85 µM
"C=CCNc1nc(-c2ccccn2)nnc1-c1ccccc1 [6-phenyl-N-prop-2-enyl-3-(2-pyridinyl)-1,2,4-triazin-5-amine]",EC50,[1],7.13 µM
same,EC50,[2],6.15 µM
same,EC50,[3],4.62 µM
c1ccc(CNc2nc(-c3ccccn3)nnc2-c2ccccc2)cc1 [GNF-Pf-100],EC50,[1],7.74 µM
same,EC50,[2],4.48 µM
same,EC50,[3],4.8 µM
CN(C)c1nc(-c2ccccn2)nnc1-c1ccccc1 [MLS000541553],EC50,[1],7.46 µM
same,EC50,[2],9.06 µM
same,EC50,[3],9.82 µM
O=C(NCCCn1ccnc1)c1cc(-c2ccccc2)on1 [MLS000708948],EC50,[1],8.67 µM
same,EC50,[2],15.8 µM
same,EC50,[3],7.72 µM
CC(=O)N(O)CCCCCNC(=O)CCC(=O)N(O)CCCCCNC(=O)CCC(=O)N(O)CCCCCN [N-[5-[[4-[5-[acetyl(hydroxy)amino]pentylamino]-4-oxobutanoyl]-hydroxyamino]pentyl]-N''-(5-aminopentyl)-N''-hydroxybutanediamide;methanesulfonic acid],EC50,[1],17.8 µM

# From BindingDB's records for doi:10.1016/j.bmcl.2011.11.077 (The Broad Institute Probe Development Center, 2011)
